# Test results as given in patent publication US9844595B2, “Composition comprising a complex of (+)-catechin and amino acid for the treatment and prevention of cancer” (VALORE, priority 2013, dated 2017).
# Where “and” joins values, the source holds several entries; their conditions need not be identical. Identical values can stand only once. Like-named read-outs stand apart in the source and are kept apart here.
# How the values were obtained:
# [1] = Bioavailability after oral administration in human beings (free monomeric (+)-catechin in plasma, LC-MS/MS)
# Experimental: (§1) With regard to taking the blood samples from the rats and from the human beings, the blood was collected in tubes internally coated with EDTA and was then centrifuged at 3000 rpm (revolutions per minute) at ambient temperature for 45 min, and then for 15 min at a temperature of 4° C. The plasma was then collected and stored at −70° C. before analysis.
# (§2) The analytical technique (LC-MS/MS for Liquid Chromatography coupled to tandem Mass Spectrometry) for measuring the active substance in the blood was based on the method described by Mata-Bilbao et al., published in 2007 in the Journal of Agricultural and Food Chemistry, volume 55, page 8857.
# (§3) The free (+)-catechin was extracted from the plasma with a solution of phosphoric acid, EDTA and ascorbic acid and was then purified by SPE (solid phase extraction); in particular, it is an Oasis™ HLB extraction which is analyzed by LC-MS/MS. The quantification was carried out according to a standard calibration procedure with (+/−)-catechin-2,3,4-^13C3 as internal standard (SI).
# This complex salt is administered to a group A of 5 healthy volunteers.
# This ct parameter makes it possible to calculate, from the data of table 1, the bioavailability of the (+)-catechin expressed in ng h/ml.
# [2] = for Δct: vs CP; for Δct measured between the IV and PO data, free (+)-catechin / Δct measured between the IV and PO data, total (+)-catechin: PO vs IV; for plasma concentration (cc) of the free monomeric (+)-catechin / plasma concentration (cc) of the total monomeric (+)-catechin: 25 mg/kg (+)-catechin equivalent
# Experimental: The experimental results described below were obtained on the basis of a study carried out in healthy human beings and in healthy Wistar rats weighing approximately 250 grams.
# An acclimation period was observed before beginning the experiments.
# The rats received an administration per os of a volume of 5 ml of a solution of active product.
# as §1, §2, §3
# The procedure is identical with regard to the extraction and the quantification of free quercetin or ECGC in the blood.
# With regard to the extraction and quantification of the total (+)-catechin, the procedure is the same as that applied to the free (+)-catechin, with the exception of the fact that an additional step prior to the purification by SPE is carried out.
# (§4) Each of the mixtures is then solubilized in water.
# Each of the mixtures is solubilized in water.
# [3] = format: in vivo, Wistar rats; conditions: for plasma concentration (cc) of the free monomeric (+)-catechin / plasma concentration (cc) of the total monomeric (+)-catechin: 25 mg/kg (+)-catechin equivalent
# Text: as §4
# Solubility in water = format: physicochemical
# collagen of rat skin = test: Total incorporation and incorporation into collagen of 3H-proline in the skin; format: in vivo, Wistar rats; conditions: 100 mg/kg by gavage, vs control subgroup
# Experimental: To do this, a study was carried out in vivo on a batch of 24 female Wistar rats weighing from 95 to 115 g, divided into two groups C and D, each of 12 rats. For each group, the radioactive 3H-hydroxyproline, the specific activity of which is 13.6 Ci/10-3 mol, was administered to all the animals by intraperitoneal injection of 3H-proline at a dose, relative to the weight of the individuals, of 1 mCi/kg, which represents an activity in terms of radioactive 3H-proline of 100 μCi/individual.
# 6 rats of each group received a treatment based on monomeric (+)-catechin by gavage in a proportion of 100 mg/kg for 5 days before sacrifice. […] The group C received monomeric (+)-catechin hydrochlorolysinate, while the group D received monomeric (+)-catechin ascorbolysinate.
# In table 8, the level of incorporation is measured by the number of disintegrations of the radioactive 3H-hydroxyproline per minute (dpm) per mg of dry weight. The higher this number, the higher the concentration of 3H-hydroxyproline.
# In this comparative example, a group E of 12 Wistar rats weighing from 95 to 115 g, in which radioactive 3H-hydroxyproline, the specific activity of which is 13.6 Ci/10-3 mol, was administered to all the individuals by intraperitoneal injection of 3H-proline at a dose, relative to the weight of the individuals, of 1 mCi/kg, which represents an activity in terms of radioactive 3H-proline of 100 μCi/individual.
# 6 rats of each group received a treatment based on pure monomeric (+)-catechin by gavage in a proportion of 100 mg/kg for 5 days before sacrifice.
# [4] = free (+)-catechin, 1 g pure monomeric (+)-catechin, group B
# [5] = free monomeric (+)-catechin in plasma
# [6] = free (+)-catechin, rats, oral, dose equivalent to 25 mg/kg (+)-catechin, 3 Wistar rats
# [7] = free (+)-catechin, rats, per os, dose equivalent to 25 mg/kg (+)-catechin, 5 Wistar rats, pulverulent mixture solubilized in water
# [8] = total (+)-catechin (free and conjugated), rats, oral, dose equivalent to 25 mg/kg, 3 Wistar rats
# [9] = 25 mg/kg, rats, listed as C:Lys:HCl/1:2:2, 25 mg/kg
compound,measurement,setting,value
"Oc1cc(O)c2c(c1)O[C@H](c1ccc(O)c(O)c1)[C@@H](O)C2 [CP, (+)-catechin]",c (max) related back to 0.92 g of pure (+)-catechin,[1],258 ng/mL
same,ct related back to 0.92 g of pure (+)-catechin,[1]; equivalent amount of 0.92 g pure (+)-catechin,832 ± 150 ng·h/mL
same,ct related back to 0.920 g of pure (+)-catechin,[1]; equivalent amount of 0.920 g pure (+)-catechin,49 920 ng min/ml
same,T (max),[1]; [4],1.20 h
same,c (max),[1]; [4],280 ng/mL
same,"ct (total concentration, area under the curve over six hours)","[1]; free (+)-catechin, 1 g pure monomeric (+)-catechin, group B, listed as pure (+)-catechin",904 ± 163 ng·h/mL
same,T (max),[1]; [5],1.33 h
same,c (max) for 1 g of monomeric (+)-catechin ingested as it is,[1]; [5],280 ng
same,T (max),[2]; [6],0.5 h
same,Δct,[2]; [6],0%
same,"Δct (difference of ct to CP, related back to CP)","[2]; free (+)-catechin, rats, oral, dose equivalent to 100 mg/kg (+)-catechin",0%
same,T (max),"[2]; free (+)-catechin, rats, oral, dose equivalent to 100 mg/kg (+)-catechin, 5 Wistar rats",1 h
same,T (max),[2]; [7],1 h
same,c (max),[2]; [7],580 ng/mL
same,ct,[2]; [7],91 935 ng min/ml
same,Δct,"[2]; free (+)-catechin, rats, per os, dose equivalent to 25 mg/kg, 5 Wistar rats",0%
same,decrease of the peak content of free monomeric (+)-catechin in the blood,"[2]; oral absorption, after two hours",50%
same,T (max),[2]; [8],0.5 h
same,c (max),[2]; [8],2200 ng/mL
same,Δct,"[2]; total (+)-catechin, rats, oral, dose equivalent to 25 mg/kg, 3 Wistar rats",0%
same,content of free monomeric (+)-catechin eliminated from the blood,[3]; in a period of one hour following the injection,~90%
same,solubility in water compared with the complexed form,Solubility in water,400 times lower
same,increase in the level of incorporation,collagen of rat skin,+16%
Cl.Cl.NCCCCC(N)C(=O)O.NCCCCC(N)C(=O)O.Oc1cc(O)c2c(c1)O[C@H](c1ccc(O)c(O)c1)[C@@H](O)C2 [[C:Lys:HCl/1:2:2]],"Δct measured between the IV and PO data, free (+)-catechin","[2]; 25 mg/kg, rats, 25 mg/kg",88%
same,"Δct measured between the IV and PO data, total (+)-catechin","[2]; 25 mg/kg, rats, 25 mg/kg",73%
same,"Δct measured between the IV and PO data, free (+)-catechin",[2]; [9],+88%
same,"Δct measured between the IV and PO data, total (+)-catechin",[2]; [9],+73%
same,total plasma concentration (ct) of the total monomeric (+)-catechin,"[2]; PO, 25 mg/kg, rats",479 585 ng min/ml
same,plasma concentration (cc) of the free monomeric (+)-catechin,"[2]; PO, T 10 min, rats",428 ng/mL
same,plasma concentration (cc) of the total monomeric (+)-catechin,"[2]; PO, T 10 min, rats",1839 ng/mL
same,plasma concentration (cc) of the free monomeric (+)-catechin,"[2]; PO, T 30 min, rats",1027 ng/mL
same,plasma concentration (cc) of the total monomeric (+)-catechin,"[2]; PO, T 30 min, rats",3780 ng/mL
same,plasma concentration (cc) of the free monomeric (+)-catechin,"[2]; PO, T 60 min, rats",1188 ng/mL
same,plasma concentration (cc) of the total monomeric (+)-catechin,"[2]; PO, T 60 min, rats",3190 ng/mL
same,plasma concentration (cc) of the free monomeric (+)-catechin,"[2]; PO, T 120 min, rats",767 ng/mL
same,plasma concentration (cc) of the total monomeric (+)-catechin,"[2]; PO, T 120 min, rats",1990 ng/mL
same,plasma concentration (cc) of the free monomeric (+)-catechin,"[2]; PO, T 240 min, rats",179 ng/mL
same,plasma concentration (cc) of the total monomeric (+)-catechin,"[2]; PO, T 240 min, rats",475 ng/mL
same,T (max),[2]; [7],1 h
same,c (max),[2]; [7],1200 ng/mL
same,total plasma concentration (ct) of the free monomeric (+)-catechin,"[3]; IV, 25 mg/kg, rats",87 970 ng min/ml
same,total plasma concentration (ct) of the total monomeric (+)-catechin,"[3]; IV, 25 mg/kg, rats",277 040 ng min/ml
same,plasma concentration (cc) of the free monomeric (+)-catechin,"[3]; IV, T 10 min, rats",3340 ng/mL
same,plasma concentration (cc) of the total monomeric (+)-catechin,"[3]; IV, T 10 min, rats",8066 ng/mL
same,plasma concentration (cc) of the free monomeric (+)-catechin,"[3]; IV, T 30 min, rats",991 ng/mL
same,plasma concentration (cc) of the total monomeric (+)-catechin,"[3]; IV, T 30 min, rats",2639 ng/mL
same,plasma concentration (cc) of the free monomeric (+)-catechin,"[3]; IV, T 60 min, rats",291 ng/mL
same,plasma concentration (cc) of the total monomeric (+)-catechin,"[3]; IV, T 60 min, rats",1191 ng/mL
same,plasma concentration (cc) of the free monomeric (+)-catechin,"[3]; IV, T 120 min, rats",0 ng/mL
same,plasma concentration (cc) of the total monomeric (+)-catechin,"[3]; IV, T 120 min, rats, 25 mg/kg",340 ng/mL and 338 ng/mL
same,plasma concentration (cc) of the free monomeric (+)-catechin,"[3]; IV, T 240 min, rats",0 ng/mL
same,plasma concentration (cc) of the total monomeric (+)-catechin,"[3]; IV, T 240 min, rats",0 ng/mL
